# Measured values taken from ChEMBL document CHEMBL4699553, “Synthesis and biological evaluation of chalcone derivatives as neuroprotective agents against glutamate-induced HT22 mouse hippocampal neuronal cell death” (Bioorg Med Chem Lett, 2020).
# Active and inactive are the calls of the source. The calls are words filed in the database; no cut-off is given here.
# What was measured:
# HT-22 [1] = assay: Neuroprotective activity against glutamate-induced cell death in mouse HT22 cells assessed as increase in cell viability at 0.15 to 38.46 uM incubated for 12 hrs by calcein-AM dye and propidium iodide staining based analysis; assay type: functional; conditions: dose microM 0.15-38.46, time 12.0 hrs
# HT-22 [2] = assay: Neuroprotection against glutamate-induced apoptosis in mouse HT22 cells assessed as reduction in bax protein level at 1.4 to 12.8 uM by Western blot analysis; assay type: functional, cell-based; conditions: dose microM 1.4-12.8
# [3] = target: T1, Nuclear factor erythroid 2-related factor 2 (Homo sapiens) (UniProt Q16236); assay: Activation of Nrf2 in human HepG2 cells co-transfected with ARE luciferase gene assessed as increase in ARE-driven luciferase activity by luciferase reporter gene assay; assay type: cell-based; conditions: filed as activator
# T1 sequence (whole entry): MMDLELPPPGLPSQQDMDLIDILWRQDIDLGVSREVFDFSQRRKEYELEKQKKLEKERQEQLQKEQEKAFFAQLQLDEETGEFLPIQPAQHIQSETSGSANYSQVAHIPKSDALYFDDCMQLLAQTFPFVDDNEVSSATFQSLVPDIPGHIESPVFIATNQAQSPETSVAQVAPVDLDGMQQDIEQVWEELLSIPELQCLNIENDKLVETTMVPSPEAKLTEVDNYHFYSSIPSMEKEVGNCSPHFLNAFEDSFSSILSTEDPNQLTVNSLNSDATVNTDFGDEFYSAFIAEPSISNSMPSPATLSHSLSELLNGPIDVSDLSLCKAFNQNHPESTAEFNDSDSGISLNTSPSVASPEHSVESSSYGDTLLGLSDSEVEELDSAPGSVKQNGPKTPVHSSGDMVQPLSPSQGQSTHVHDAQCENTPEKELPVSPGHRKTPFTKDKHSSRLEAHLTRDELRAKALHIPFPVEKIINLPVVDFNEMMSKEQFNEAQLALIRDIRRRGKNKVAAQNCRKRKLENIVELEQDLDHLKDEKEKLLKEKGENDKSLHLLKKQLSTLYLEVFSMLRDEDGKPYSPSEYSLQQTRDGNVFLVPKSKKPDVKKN
# Caenorhabditis elegans = assay: Neuroprotective activity against 6-OHDA induced neuronal dysfunction in Caenorhabditis elegans N2 assessed as increase in number of body bending at 100 uM incubated for 1 hr and measured for 20 sec; assay type: functional, organism-based
# HT-22 [4] = assay: Neuroprotective activity against glutamate-induced cell death in mouse HT22 cells assessed as cell viability at 12.8 uM incubated for 12 hrs by calcein AM dye and propidium iodide staining based analysis (reference value: 50%); assay type: functional; conditions: read-out: Activity
# HT-22 [5] = assay: Inhibition of glutamate-induced ERK activation in mouse HT22 cells assessed as reduction in phosphorylated ERK protein level by Western blot analysis; assay type: cell-based; conditions: dose microM 1.4-12.8
# HT-22 [6] = assay: Neuroprotection against glutamate-induced apoptosis in mouse HT22 cells assessed as increase in bcl2 protein level at 1.4 to 12.8 uM by Western blot analysis; assay type: functional, cell-based; conditions: dose microM 1.4-12.8
# HT-22 [7] = assay: Induction of apoptosis in mouse HT22 cells assessed as late apoptotic cells at 12.8 uM by Annexin-V FITC and propidium iodide staining based flow cytometric analysis (reference value: 7.05 %); assay type: cell-based; conditions: ht-22, 12.8 µM
# HT-22 [8] = assay: Neuroprotective activity against glutamate-induced cell death in mouse HT22 cells assessed as necrotic cells at 12.8 uM by Annexin-V FITC and propidium iodide staining based flow cytometric analysis (reference value: 0.51 %); assay type: functional
# HT-22 [9] = assay: Inhibition of glutamate-induced JNK activation in mouse HT22 cells assessed as reduction in phosphorylated JNK protein level by Western blot analysis; assay type: cell-based; conditions: dose microM 1.4-12.8
# HT-22 [10] = assay: Induction of apoptosis in mouse HT22 cells assessed as necrotic cells at 12.8 uM by Annexin-V FITC and propidium iodide staining based flow cytometric analysis (reference value: 2.53 %); assay type: cell-based; conditions: ht-22, 12.8 µM
# HT-22 [11] = assay: Neuroprotective activity against glutamate-induced cell death in mouse HT22 cells assessed as late apoptotic cells at 12.8 uM by Annexin-V FITC and propidium iodide staining based flow cytometric analysis (reference value: 4.62 %); assay type: functional
# [12] = Antioxidant activity assessed as DPPH radical scavenging activity; assay type: functional
# HT-22 [13] = assay: Neuroprotective activity against glutamate-induced cell death in mouse HT22 cells assessed as live cells at 12.8 uM by Annexin-V FITC and propidium iodide staining based flow cytometric analysis (reference value: 15.03 %); assay type: functional
# HT-22 [14] = assay: Neuroprotective activity against glutamate-induced cell death in mouse HT22 cells assessed as early apoptotic cells at 12.8 uM by Annexin-V FITC and propidium iodide staining based flow cytometric analysis (reference value: 79.84 %); assay type: functional
# [15] = Induction of apoptosis in mouse HT22 cells assessed as viable cells at 12.8 uM by Annexin-V FITC and propidium iodide staining based flow cytometric analysis (reference value: 87.05 %); assay type: cell-based, HT-22; conditions: read-out: Activity
# [16] = target: MAP kinase p38 (Mus musculus) (UniProt P47811+O08911+Q9WUI1+Q9Z1B7); assay: Inhibition of glutamate-induced p38 MAPK activation in mouse HT22 cells assessed as reduction in phosphorylated p38 MAPK protein level by Western blot analysis; assay type: cell-based; conditions: HT-22, dose microM 1.4-12.8
# HT-22 [17] = assay: Induction of apoptosis in mouse HT22 cells assessed as early apoptotic cells at 12.8 uM by Annexin-V FITC and propidium iodide staining based flow cytometric analysis (reference value: 3.37 %); assay type: cell-based; conditions: ht-22, 12.8 µM
# HT-22 [18] = assay: Neuroprotection against glutamate-induced apoptosis in mouse HT22 cells assessed as decrease in translocation of AIF to nucleus at 12.8 uM by Western blot analysis; assay type: functional, cell-based
# HT-22 [19] = assay: Neuroprotection against glutamate-induced apoptosis in mouse HT22 cells assessed as decrease in translocation of AIF to nucleus at 12.8 uM by immunostaining analysis; assay type: functional, cell-based
# HT-22 [20] = assay: Neuroprotective activity against glutamate-induced oxidative stress in mouse HT22 cells assessed as reduction in intracellular ROS accumulation at 12.8 uM by DCF-DA staining based fluorescence assay; assay type: functional, cell-based
# HT-22 [21] = assay: Neuroprotection against glutamate-induced Ca2+ homeostasis disruption in mouse HT22 cells assessed as reduction in intracellular Ca2+ uptake at 1.4 to 12.8 uM by Fluo3-AM staining based fluorescent microscopic method; assay type: functional, cell-based; conditions: dose microM 1.4-12.8
# Hippocampus = assay: Inhibition of erastin induced ferroptotic-cell death in rat hippocampal culture by propidium iodide uptake based fluorescence analysis; assay type: functional, tissue-based
compound,measurement,setting,value
COc1ccc2c(c1)C(=O)/C(=C/c1cccc(O)c1)CC2,Activity,HT-22 [1],inactive
COc1ccc2c(c1)C(=O)/C(=C/c1cc(OC)c(Br)c(OC)c1)CC2,Activity,HT-22 [1],Active
COc1cccc(/C=C2\CCc3ccc(OC)cc3C2=O)c1,Activity,HT-22 [1],Active
COc1ccc2c(c1)C(=O)/C(=C/c1cc(OC)c(OC)c(OC)c1)CC2,Activity,HT-22 [1],Active
COc1ccc2c(c1)C(=O)/C(=C/c1cc(OC)c(OC)cc1Br)CC2,Activity,HT-22 [1],Active
COc1ccc2c(c1)C(=O)/C(=C/c1ccc(OC)c(OC)c1)CC2,Activity,HT-22 [1],Active
COc1cc(OC)c(/C=C2\CCc3ccc(OC)cc3C2=O)c(OC)c1,Activity,HT-22 [1],Active
COc1ccc2c(c1)C(=O)/C(=C/c1ccc(O)cc1)CC2,Activity,HT-22 [1],inactive
COc1ccc2c(c1)C(=O)/C(=C/c1ccc(N(C)C)cc1)CC2,Activity,HT-22 [1],Active
COc1ccc2c(c1)C(=O)/C(=C/c1c[nH]c3ccccc13)CC2,Activity,HT-22 [2],Active
same,Activity,[3],Active
same,Activity,Caenorhabditis elegans,Active
same,viability at 12.8 µM,HT-22 [4],> 80%
same,inhibition,HT-22 [5],Dose-dependent effect
same,Activity,HT-22 [6],Active
same,Activity,HT-22 [7],8.72%
same,Activity,HT-22 [8],1.68%
same,inhibition,HT-22 [9],Dose-dependent effect
same,Activity,HT-22 [10],2.08%
same,Activity,HT-22 [11],5.92%
same,Activity,[12],inactive
same,Activity,HT-22 [13],91.37%
same,Activity,HT-22 [14],1.03%
same,viability at 12.8 µM,[15],88.2%
same,inhibition,[16],Dose-dependent effect
same,Activity,HT-22 [17],0.95%
same,Activity,HT-22 [18],Active
same,Activity,HT-22 [19],Active
same,Activity,HT-22 [20],Active
same,Activity,HT-22 [21],Active
same,inhibition,Hippocampus,inactive
